Laboratory results from PMC3388095, “Fluorophore Labeled Kinase Detects Ligands That Bind within the MAPK Insert of p38α Kinase” (PLoS ONE, 2012).

Experiments:
Assay in all cases: Kinase selectivity profile, 33P-ATP filter-binding assay
Format in all cases: biochemical
SRPK1 = SRPK1 (Homo sapiens, UniProt Q96SB4)
Description: (§1) Figure 5 Kinase selectivity profile of 1b. Compound 1b was profiled against a selected panel of 95 different kinases at a concentration of 10 µM employing a radioactive (^33P-ATP) filter-binding assay (National Centre for Protein Kinase Profiling, Dundee). The numbers represent the remaining kinase activity in %. […] TEXT PRINTED IN THE PICTURE: no label printed: Aurora B: 53; MNK2: 67; MINK1: 69; HER4: 71; MKK1: 75; PKBβ: 75; PHK: 76; PIM2: 76; PIM3: 77; CHK2: 78; PKD1: 79; TBK1: 79; PAK4: 80; Lck: 80; GSK3β: 80; IGF-1R: 81; p38δ MAPK: 81; PIM1: 82; SRPK1: 83; SmMLCK: 83; MAPKAP-K3: 84; EPH A2: 85; MELK: 85; CK2: 85; CK1: 86; CAMK1: 86; PLK1: 87; MST2: 87; IR-HIS: 87; BTK: 87; HIPK1: 87; p38α MAPK: 88; DYRK2: 88; JNK3: 88; PAK5: 88; IKKε: 89; p38β MAPK: 89; NUAK1: 90; PAK2: 90; MNK1: 91; ERK8: 91; GCK: 91; PRAK: 91; MLK1: 92; SGK1: 92; PAK6: 92; TTK: 92; BRSK2: 92; MARK4: 93; CHK1: 93; RIPK2: 94; CDK2-Cyclin A: 94; JNK1: 94; AMPK: 94; VEG-FR: 95; DYRK1A: 95; CAMKKβ: 95; PKCα: 96; S6K1: 96; MSK1: 96; PKCz: 96; YES1: 96; RSK1: 97; IRAK4: 97; DYRK3: 97; IKKβ: 97; ERK2: 98; MLK3: 98; RSK2: 98; LKB1: 98; MAPKAP-K2: 98; ERK1: 99; FGF-R1: 99; SYK: 99; MST4: 99; MARK3: 99; MARK2: 100; PDK1: 100; JNK2: 101; HIPK2: 101; BRSK1: 102; EF2K: 102; PRK2: 103; Aurora A: 104; IRR: 104; CSK: 104; PKA: 104; NEK6: 105; p38γ MAPK: 105; Src: 107; PKBα: 109; ROCK 2: 109; EPH-B3: 112; HIPK3: 115; NEK2α: 119 DOUBTS OF THE COPYIST ABOUT THIS PICTURE: The picture prints no compound label and no measure or unit for the numbers; only the colour scale 'Inhibition weak/strong' is printed. / PKCz: the last letter may be z or ζ / NEK2α: the last letter may be a or α / IKKε: the last letter may be ε or e

PAK6 = PAK6 (Homo sapiens, UniProt Q9NQU5)
Description: as §1

Aurora A = Aurora A (Homo sapiens, UniProt O14965)
Description: as §1

CAMKKβ = CAMKKβ (Homo sapiens, UniProt Q96RR4)
Description: as §1

MAPKAP-K3 = MAPKAP-K3 (Homo sapiens, UniProt Q16644)
Description: as §1

ERK1 = ERK1 (Homo sapiens, UniProt P27361)
Description: as §1

MELK = MELK (Homo sapiens, UniProt Q14680)
Description: as §1

HER4 = HER4 (Homo sapiens, UniProt Q15303)
Description: as §1

p38δ MAPK = p38δ MAPK (Homo sapiens, UniProt O15264)
Description: as §1

EPH A2 = EPH A2 (Homo sapiens, UniProt P29317)
Description: as §1

MST4 = MST4 (Homo sapiens, UniProt Q9P289)
Description: as §1

PAK4 = PAK4 (Homo sapiens, UniProt O96013)
Description: as §1

PIM2 = PIM2 (Homo sapiens, UniProt Q9P1W9)
Description: as §1

CSK = CSK (Homo sapiens, UniProt P41240)
Description: as §1

IRAK4 = IRAK4 (Homo sapiens, UniProt Q9NWZ3)
Description: as §1

LKB1 = LKB1 (Homo sapiens, UniProt Q15831)
Description: as §1

PIM3 = PIM3 (Homo sapiens, UniProt Q86V86)
Description: as §1

TBK1 = TBK1 (Homo sapiens, UniProt Q9UHD2)
Description: as §1

GSK3β = GSK3β (Homo sapiens, UniProt P49841)
Description: as §1

Src = Src (Homo sapiens, UniProt P12931)
Description: as §1

ERK2 = ERK2 (Homo sapiens, UniProt P28482)
Description: as §1

MAPKAP-K2 = MAPKAP-K2 (Homo sapiens, UniProt P49137)
Description: as §1

IRR = IRR (Homo sapiens, UniProt P14616)
Description: as §1

FGF-R1 = FGF-R1 (Homo sapiens, UniProt P11362)
Description: as §1

YES1 = YES1 (Homo sapiens, UniProt P07947)
Description: as §1

PLK1 = PLK1 (Homo sapiens, UniProt P53350)
Description: as §1

BRSK2 = BRSK2 (Homo sapiens, UniProt Q8IWQ3)
Description: as §1

Chain of MST4 (Q9P289 whole entry): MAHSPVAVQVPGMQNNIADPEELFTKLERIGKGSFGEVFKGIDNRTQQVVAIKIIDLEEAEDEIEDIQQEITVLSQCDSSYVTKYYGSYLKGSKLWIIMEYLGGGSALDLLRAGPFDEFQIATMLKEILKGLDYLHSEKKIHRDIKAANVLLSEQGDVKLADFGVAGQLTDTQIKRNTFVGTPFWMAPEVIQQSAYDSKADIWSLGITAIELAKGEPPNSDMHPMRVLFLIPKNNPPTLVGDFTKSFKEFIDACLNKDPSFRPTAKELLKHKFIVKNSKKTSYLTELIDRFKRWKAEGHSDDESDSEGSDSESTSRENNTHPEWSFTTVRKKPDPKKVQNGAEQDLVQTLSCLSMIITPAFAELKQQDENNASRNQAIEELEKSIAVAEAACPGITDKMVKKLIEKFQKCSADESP
Chain of LKB1 (Q15831 whole entry): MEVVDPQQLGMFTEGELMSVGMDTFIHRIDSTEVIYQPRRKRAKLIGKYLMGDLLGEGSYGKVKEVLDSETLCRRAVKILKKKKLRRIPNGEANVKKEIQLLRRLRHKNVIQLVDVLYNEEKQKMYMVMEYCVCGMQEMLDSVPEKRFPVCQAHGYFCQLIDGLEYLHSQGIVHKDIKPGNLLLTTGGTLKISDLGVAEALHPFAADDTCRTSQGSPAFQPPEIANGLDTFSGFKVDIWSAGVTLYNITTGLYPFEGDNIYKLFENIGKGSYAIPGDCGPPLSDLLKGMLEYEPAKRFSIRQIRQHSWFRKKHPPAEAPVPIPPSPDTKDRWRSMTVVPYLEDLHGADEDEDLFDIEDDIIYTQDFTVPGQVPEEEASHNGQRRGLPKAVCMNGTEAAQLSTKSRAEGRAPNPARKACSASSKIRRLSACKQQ
Chain of LKB1 (Q7RTN6 whole entry partner): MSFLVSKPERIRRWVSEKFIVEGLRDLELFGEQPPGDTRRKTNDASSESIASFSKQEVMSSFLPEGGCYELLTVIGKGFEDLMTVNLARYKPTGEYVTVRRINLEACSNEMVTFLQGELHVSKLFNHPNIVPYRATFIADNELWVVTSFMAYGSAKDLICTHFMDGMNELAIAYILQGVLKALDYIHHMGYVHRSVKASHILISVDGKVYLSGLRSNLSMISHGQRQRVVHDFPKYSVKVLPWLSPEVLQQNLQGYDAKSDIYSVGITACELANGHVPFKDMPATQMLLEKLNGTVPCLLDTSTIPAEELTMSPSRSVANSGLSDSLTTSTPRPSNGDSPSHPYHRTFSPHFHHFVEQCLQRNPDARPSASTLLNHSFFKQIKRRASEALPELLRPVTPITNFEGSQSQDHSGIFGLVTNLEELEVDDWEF
Chain of LKB1 (Q9Y376 whole entry partner): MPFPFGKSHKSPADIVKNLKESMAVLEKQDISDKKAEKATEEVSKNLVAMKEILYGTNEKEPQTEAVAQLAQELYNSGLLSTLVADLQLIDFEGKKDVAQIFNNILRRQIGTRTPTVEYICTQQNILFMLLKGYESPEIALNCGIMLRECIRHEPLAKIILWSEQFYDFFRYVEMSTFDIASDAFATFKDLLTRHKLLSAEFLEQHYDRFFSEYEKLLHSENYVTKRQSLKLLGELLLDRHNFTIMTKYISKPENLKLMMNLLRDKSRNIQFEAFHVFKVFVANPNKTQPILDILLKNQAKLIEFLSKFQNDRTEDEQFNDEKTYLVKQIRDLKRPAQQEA
Chain of Aurora A (O14965 whole entry): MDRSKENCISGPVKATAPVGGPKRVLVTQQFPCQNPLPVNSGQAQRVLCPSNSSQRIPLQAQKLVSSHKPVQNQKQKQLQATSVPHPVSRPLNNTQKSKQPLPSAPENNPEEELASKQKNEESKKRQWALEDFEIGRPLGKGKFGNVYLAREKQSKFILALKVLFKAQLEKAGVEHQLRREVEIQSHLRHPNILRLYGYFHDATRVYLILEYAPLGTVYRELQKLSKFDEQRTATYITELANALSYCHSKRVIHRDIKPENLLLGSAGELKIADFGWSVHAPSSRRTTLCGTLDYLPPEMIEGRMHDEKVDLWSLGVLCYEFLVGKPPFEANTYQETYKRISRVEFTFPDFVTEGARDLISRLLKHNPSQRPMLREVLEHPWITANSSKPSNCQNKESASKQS
Chain of IRAK4 (Q9NWZ3 whole entry): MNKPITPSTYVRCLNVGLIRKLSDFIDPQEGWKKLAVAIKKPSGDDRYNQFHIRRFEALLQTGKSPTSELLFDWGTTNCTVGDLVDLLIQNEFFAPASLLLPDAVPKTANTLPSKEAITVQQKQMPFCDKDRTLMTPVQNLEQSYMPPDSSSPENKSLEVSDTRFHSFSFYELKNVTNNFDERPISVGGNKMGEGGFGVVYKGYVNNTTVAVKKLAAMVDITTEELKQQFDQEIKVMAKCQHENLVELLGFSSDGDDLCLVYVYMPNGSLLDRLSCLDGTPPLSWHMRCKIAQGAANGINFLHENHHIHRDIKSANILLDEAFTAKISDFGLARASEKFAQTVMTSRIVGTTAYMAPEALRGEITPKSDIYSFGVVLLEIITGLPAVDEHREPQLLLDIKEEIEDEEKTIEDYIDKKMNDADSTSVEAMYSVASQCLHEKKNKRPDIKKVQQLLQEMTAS
Chain of MAPKAP-K2 (P49137 whole entry): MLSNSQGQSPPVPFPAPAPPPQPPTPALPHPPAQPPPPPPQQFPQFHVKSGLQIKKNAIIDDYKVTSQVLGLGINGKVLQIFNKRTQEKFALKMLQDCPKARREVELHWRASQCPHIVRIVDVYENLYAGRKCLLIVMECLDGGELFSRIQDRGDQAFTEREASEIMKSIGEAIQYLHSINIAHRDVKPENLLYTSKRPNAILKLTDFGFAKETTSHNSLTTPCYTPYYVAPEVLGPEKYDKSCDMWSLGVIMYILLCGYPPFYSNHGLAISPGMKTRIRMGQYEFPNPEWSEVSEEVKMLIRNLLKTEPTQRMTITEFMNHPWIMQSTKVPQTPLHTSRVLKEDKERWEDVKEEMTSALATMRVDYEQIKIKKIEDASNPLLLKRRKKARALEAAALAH
Chain of GSK3β (P49841 whole entry): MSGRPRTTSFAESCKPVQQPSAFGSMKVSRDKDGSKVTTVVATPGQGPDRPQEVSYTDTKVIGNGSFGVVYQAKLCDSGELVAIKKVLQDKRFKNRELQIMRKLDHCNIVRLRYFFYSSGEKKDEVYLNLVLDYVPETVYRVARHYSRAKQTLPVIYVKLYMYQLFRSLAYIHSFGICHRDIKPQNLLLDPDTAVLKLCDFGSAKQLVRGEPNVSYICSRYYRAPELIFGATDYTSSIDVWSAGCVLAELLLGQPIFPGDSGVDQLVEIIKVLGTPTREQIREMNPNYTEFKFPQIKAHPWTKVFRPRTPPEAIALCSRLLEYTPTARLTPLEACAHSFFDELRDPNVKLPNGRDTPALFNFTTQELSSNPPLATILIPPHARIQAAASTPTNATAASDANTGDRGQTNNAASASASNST
Chain of CAMKKβ (Q96RR4 whole entry): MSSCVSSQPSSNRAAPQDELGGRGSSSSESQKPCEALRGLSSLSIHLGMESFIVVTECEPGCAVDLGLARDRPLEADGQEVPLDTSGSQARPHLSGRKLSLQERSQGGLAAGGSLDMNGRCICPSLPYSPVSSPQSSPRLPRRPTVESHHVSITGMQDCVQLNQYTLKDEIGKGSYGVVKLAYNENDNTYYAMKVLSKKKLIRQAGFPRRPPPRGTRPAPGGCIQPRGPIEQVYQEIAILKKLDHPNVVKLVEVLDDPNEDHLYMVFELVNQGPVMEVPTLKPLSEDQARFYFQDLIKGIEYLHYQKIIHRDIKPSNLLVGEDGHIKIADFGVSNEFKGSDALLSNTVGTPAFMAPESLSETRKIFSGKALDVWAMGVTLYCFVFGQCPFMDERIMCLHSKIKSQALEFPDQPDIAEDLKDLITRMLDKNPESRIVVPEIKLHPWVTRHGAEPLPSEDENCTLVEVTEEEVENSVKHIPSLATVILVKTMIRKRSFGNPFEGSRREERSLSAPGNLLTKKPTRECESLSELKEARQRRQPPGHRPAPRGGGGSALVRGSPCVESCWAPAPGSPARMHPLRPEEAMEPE
Chain of Src (P12931 whole entry): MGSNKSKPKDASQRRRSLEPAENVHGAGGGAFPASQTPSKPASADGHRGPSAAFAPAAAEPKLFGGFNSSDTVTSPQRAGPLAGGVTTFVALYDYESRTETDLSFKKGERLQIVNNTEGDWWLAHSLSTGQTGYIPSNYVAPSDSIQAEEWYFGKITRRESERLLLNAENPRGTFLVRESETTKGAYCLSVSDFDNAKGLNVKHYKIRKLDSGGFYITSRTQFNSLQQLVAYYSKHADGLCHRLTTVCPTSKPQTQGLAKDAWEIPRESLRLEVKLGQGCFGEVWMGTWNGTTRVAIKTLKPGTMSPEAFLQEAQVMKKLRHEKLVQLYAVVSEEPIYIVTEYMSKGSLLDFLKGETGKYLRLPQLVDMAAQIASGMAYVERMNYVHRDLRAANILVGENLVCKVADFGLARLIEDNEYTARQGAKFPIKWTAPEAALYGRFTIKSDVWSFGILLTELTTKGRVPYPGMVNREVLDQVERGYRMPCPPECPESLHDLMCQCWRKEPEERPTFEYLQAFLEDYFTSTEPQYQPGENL

## Nc1ccc2c(NC3CC3)nc(-c3ccccc3)nc2c1 [1b, N^4-Cyclopropyl-2-phenyl-4,7-quinazolinediamine]
SRPK1
  remaining activity at 10 µM: 83%
PAK6
  remaining activity at 10 µM: 92%
Aurora A
  remaining activity at 10 µM: 104%
CAMKKβ
  remaining activity at 10 µM: 95%
MAPKAP-K3
  remaining activity at 10 µM: 84%
ERK1
  remaining activity at 10 µM: 99%
MELK
  remaining activity at 10 µM: 85%
HER4
  remaining activity at 10 µM: 71%
p38δ MAPK
  remaining activity at 10 µM: 81%
EPH A2
  remaining activity at 10 µM: 85%
MST4
  remaining activity at 10 µM: 99%
PAK4
  remaining activity at 10 µM: 80%
PIM2
  remaining activity at 10 µM: 76%
CSK
  remaining activity at 10 µM: 104%
IRAK4
  remaining activity at 10 µM: 97%
LKB1
  remaining activity at 10 µM: 98%
PIM3
  remaining activity at 10 µM: 77%
TBK1
  remaining activity at 10 µM: 79%
GSK3β
  remaining activity at 10 µM: 80%
Src
  remaining activity at 10 µM: 107%
ERK2
  remaining activity at 10 µM: 98%
MAPKAP-K2
  remaining activity at 10 µM: 98%
IRR
  remaining activity at 10 µM: 104%
FGF-R1
  remaining activity at 10 µM: 99%
YES1
  remaining activity at 10 µM: 96%
PLK1
  remaining activity at 10 µM: 87%
BRSK2
  remaining activity at 10 µM: 92%
